Values of other authors as cited in patent US20230144779A1, “FORMULATIONS AND METHOD FOR TREATMENT OF INFLAMMATORY DISEASES” (VYOME THERAPEUTICS INC., priority 2019, published 2023).

COc1c(C)c2c(c(O)c1C/C=C(\C)CCC(=O)O)C(=O)OC2 [Mycophenolic acid (MPA), Mycophenolic acid]
solubility: Practical insoluble, 63 mcg/ml. MPA as such is not available in the market, it is available as salt form Hydrophilic nature as compared to its ester prodrug
